Experimental data as given in patent US20080219922A1, “Alzheimer's Disease Imaging Agents” (priority 2005, published 2008).

Key:
[1] = Partition coefficient determination (1-octanol/phosphate buffer pH 7.4); type: physicochemical; details: 1-octanol / 0.02 M sodium phosphate buffer pH 7.4
Procedure: Measurement of distribution coefficient of [^18F]tracer was performed based on the method described by Wilson et al. [Labelled Compd. Radiopharm., 42:1277-1288 (1999)] using 0.02 M sodium phosphate buffer at pH 7.4 and 1-octanol. Basically, the test tubes containing ˜20 μCi of the radiotracer and 2 mL each of 1-octanol and phosphate buffer were vortexed for 10 min at room temperature and then centrifuged for 5 min. Samples (0.5 mL) from 1-octanol and buffer layers were counted in a Packard Cobra II auto-gamma counter (Perkin-Elmer, Downers Grove, Ill.) and decay corrected. The measurement was repeated three times. The log P7.4 value was calculated as follows: log P7.4 log [counts in octanol phase/counts in buffer phase].

[2] = target: T1, amyloid plaques in sections from postmortem AD brains (Homo sapiens, UniProt P05067); test: In vitro film autoradiography of postmortem AD brain sections; type: binding
T1 construct: abundant amyloid plaques or deposits composed of amyloid-β(Aβ) peptides; from tissue; host or cells: postmortem brain tissue sections of frontal lobe from an AD patient
T1 sequence (P05067 672-713 limits assumed): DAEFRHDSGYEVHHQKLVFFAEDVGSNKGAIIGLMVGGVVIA
Description: FZ 202-1 in postmortem brain tissue sections of frontal lobe from an AD patient. A: AD tissue+[^18F] FZ 202-1. B: [^18F] […] C: […] [^18F]

[3] = rhesus monkey, in vivo, iv
Procedure: In order to assess brain uptake and clearance, FZ 202-1 and FZ 202-2 were radiolabeled with fluorine-18. The kinetics of fluorine-18 labeled FZ 202-1 and FZ 202-2 in brain were determined by microPET in rhesus monkeys.
PET study was performed in a male rhesus monkey weighing 6-10 kg using a Concorde MicroPET P4 imaging system. The animal was initially anesthetized with an intramuscular injection of Telazol (3 mg/kg), intubated, and then maintained on a 1% isoflurane/5% oxygen gas mixture throughout the imaging session. The monkey was placed in the PET scanner and the head was immobilized. Blood pressure, heart and respiratory rates, and expired CO2 and oxygen saturation levels were monitored continuously during the PET study. A transmission scan was obtained with a germanium-68 source prior to the PET study for attenuation correction of the emission data. Brain emission scans were performed following the intravenous administration of [^18F]tracer (5 mCi). Serial dynamic transaxial images were acquired for a total of 120 min and then binned for analysis. Emission data acquired were subject to iterative reconstruction (OSEM, two iterations, 40 subsets) with no pre- or postfiltering to provide images with an isotropic resolution of 3 mm fwhm. […]

**Q.** For `Cc1cc2nc(-c3ccc(N(C)C)cc3)cn2nc1F` [FZ 202-1], which “Log P7.4” value [1] is on record?
**A.** 2.69

**Q.** For `Cc1cc(F)nn2cc(-c3ccc(N(C)C)cc3)nc12` [FZ 202-2], which “Log P7.4” value [1] is on record?
**A.** 2.83

**Q.** With `CN(C)c1ccc(-c2cn3cc([125I])ccc3n2)cc1` [IMPY, reference compound] as the compound, how does the “Log P7.4” value [1] read?
**A.** 3.58

**Q.** With `Cc1cc2nc(-c3ccc(N(C)C)cc3)cn2nc1F` [[^18F]-FZ 202-1] as the compound, how does the “specific binding after pretreatment with nonradioactive PIB and IMPY” value ([2]; AD specimen, FIG. 3: +1 mM PIB, +10 mM IMPY) read?
**A.** eliminated

**Q.** What about the “specific binding to amyloid plaques (plaque labeling)” value ([2]; postmortem AD brain sections, frontal lobe, film autoradiography) of the same compound?
**A.** clearly observed in cortical gray matter, but not in the white matter

**Q.** And the “radioactivity ratios of peak-to-115 min in cerebellum, frontal cortex and subcortical white matter” value ([3]; male)?
**A.** 2.5-4.9

**Q.** What about the “bone uptake of radioactivity in the skull” value [3] of the same compound?
**A.** No bone uptake
